These are literature values, as cited in PubChem BioAssay AID1259409 (Chemical Carcinogenesis Research Information System (CCRIS), 2018).

Values joined by “and” are separate entries in the source; they are usually repeats but may differ in a detail not shown here. Equal entries are not always repeated.

The subject of the data set is rodent chemically induced tumor inhibition, incidence and multiplicity. The data set is described as follows: CCRIS tumor inhibitor studies. Particulars: Carcinogen: N-NITROBIS(2-OXOPROPYL)AMINE, 60559-38-4, Route [Inhibitor]: ORAL, Species: HAMSTER, Promoter: NONE USED.

Turning to `CC1=C(/C=C/C(C)=C/C=C/C(C)=C/C(=O)Nc2ccccc2)C(C)(C)CCC1`, the “tumour outcome (control, treated, inhibition, significance)” value is, setting by setting: (Dose [Inhibitor]: 0.5 OR 1.0 MMOL/KG DIET DAILY STARTING 1 WK AFTER CARCINOGEN TREATMENT AND CONTINUING THROUGH THE END OF THE STUDY (STUD, Strain/Sex: SYRIAN/FEMALE, Target Tissue: Type of Lesion: PANCREAS: DUCTULAR ADENOMA, Dose [Carcinogen]: 10 MG/KG BW ONCE) 5/23 (22%), 11/25 (44%), -100%, not significant; (Dose [Inhibitor]: 0.5 OR 1.0 MMOL/KG DIET DAILY STARTING 1 WK AFTER CARCINOGEN TREATMENT AND CONTINUING THROUGH THE END OF THE STUDY (STUD, Strain/Sex: SYRIAN/FEMALE, Target Tissue: Type of Lesion: PANCREAS: DUCTULAR ADENOMA, Dose [Carcinogen]: 40 MG/KG BW ONCE) 12/20 (60%), 18/26 (69%), -15%, not significant; (Dose [Inhibitor]: 0.5 OR 1.0 MMOL/KG DIET DAILY STARTING 1 WK AFTER CARCINOGEN TREATMENT AND CONTINUING THROUGH THE END OF THE STUDY (STUD, Strain/Sex: SYRIAN/FEMALE, Target Tissue: Type of Lesion: PANCREAS: DUCTULAR CARCINOMA, Dose [Carcinogen]: 10 MG/KG BW ONCE) 6/23 (27%), 2/25 (8%), 70%, not significant; (Dose [Inhibitor]: 0.5 OR 1.0 MMOL/KG DIET DAILY STARTING 1 WK AFTER CARCINOGEN TREATMENT AND CONTINUING THROUGH THE END OF THE STUDY (STUD, Strain/Sex: SYRIAN/MALE, Target Tissue: Type of Lesion: LIVER: BENIGN TUMOR, Dose [Carcinogen]: 40 MG/KG BW ONCE) 4/20 (20%), 12/26 (46%), -130%, not significant and 5/24 (21%), 17/39 (44%), -110%, p<0.05; (Dose [Inhibitor]: 0.5 OR 1.0 MMOL/KG DIET DAILY STARTING 1 WK AFTER CARCINOGEN TREATMENT AND CONTINUING THROUGH THE END OF THE STUDY (STUD, Strain/Sex: SYRIAN/MALE, Target Tissue: Type of Lesion: PANCREAS: DUCTULAR ADENOMA, Dose [Carcinogen]: 10 MG/KG BW ONCE) 3/22 (14%), 14/31 (45%), -221%, p<0.05; (Dose [Inhibitor]: 0.5 OR 1.0 MMOL/KG DIET DAILY STARTING 1 WK AFTER CARCINOGEN TREATMENT AND CONTINUING THROUGH THE END OF THE STUDY (STUD, Strain/Sex: SYRIAN/MALE, Target Tissue: Type of Lesion: PANCREAS: DUCTULAR ADENOMA, Dose [Carcinogen]: 40 MG/KG BW ONCE) 8/24 (33%), 19/37 (51%), -55%, not significant. The “tumour outcome (control, treated, inhibition, significance)” value (Dose [Inhibitor]: 0.5 OR 1.0 MMOL/KG DIET DAILY STARTING 1 WK AFTER CARCINOGEN TREATMENT AND CONTINUING THROUGH THE END OF THE STUDY (STUD, Strain/Sex: SYRIAN/MALE, Target Tissue: Type of Lesion: PANCREAS: DUCTULAR CARCINOMA, Dose [Carcinogen]: 10 MG/KG BW ONCE) is 4/22 (18%), 3/31 (10%), 44%, not significant; the “tumour outcome (control, treated, inhibition, significance)” value (Dose [Inhibitor]: 0.5 OR 1.0 MMOL/KG DIET DAILY STARTING 1 WK AFTER CARCINOGEN TREATMENT AND CONTINUING THROUGH THE END OF THE STUDY (STUD, Strain/Sex: SYRIAN/MALE, Target Tissue: Type of Lesion: PANCREAS: DUCTULAR CARCINOMA, Dose [Carcinogen]: 40 MG/KG BW ONCE) is listed as 5/24 (21%), 15/37 (40%), -90%, not significant; the “tumour outcome (control, treated, inhibition, significance)” value (Dose [Inhibitor]: 0.5 OR 1 MMOL/KG DIET DAILY STARTING 1 WK AFTER CARCINOGEN TREATMENT AND CONTINUING THROUGH THE END OF THE STUDY (STUDY, Strain/Sex: SYRIAN/FEMALE, Target Tissue: Type of Lesion: PANCREAS: DUCTULAR CARCINOMA, Dose [Carcinogen]: 40 MG/KG BW ONCE) is 6/20 (30%), 7/26 (27%), 10%, not significant; the “tumour outcome (control, treated, inhibition, significance)” value (Dose [Inhibitor]: 0.5 OR 1.0 MMOL/KG/D IN DIET STARTING 1 WK AFTER CARCINOGEN TREATMENT AND CONTINUING THROUGH THE END OF THE STUDY (STUDY, Strain/Sex: SYRIAN/FEMALE, Target Tissue: Type of Lesion: LIVER: BENIGN TUMOR, Dose [Carcinogen]: 40 MG/KG BW ONCE) was 4/20 (20%), 12/26 (46%), -130%, not significant; the “tumour outcome (control, treated, inhibition, significance)” value (Dose [Inhibitor]: 0.5 OR 1.0 MMOL/KG/D IN DIET STARTING 1 WK AFTER CARCINOGEN TREATMENT AND CONTINUING THROUGH THE END OF THE STUDY (STUDY, Strain/Sex: SYRIAN/FEMALE, Target Tissue: Type of Lesion: PANCREAS: DUCTULAR ADENOMA, Dose [Carcinogen]: 10 MG/KG BW ONCE) is recorded as 5/23 (22%), 11/25 (44%), -100%, not significant; the “tumour outcome (control, treated, inhibition, significance)” value (Dose [Inhibitor]: 0.5 OR 1.0 MMOL/KG/D IN DIET STARTING 1 WK AFTER CARCINOGEN TREATMENT AND CONTINUING THROUGH THE END OF THE STUDY (STUDY, Strain/Sex: SYRIAN/FEMALE, Target Tissue: Type of Lesion: PANCREAS: DUCTULAR ADENOMA, Dose [Carcinogen]: 40 MG/KG BW ONCE) is listed as 12/20 (60%), 18/26 (69%), -15%, not significant. In addition, the “tumour outcome (control, treated, inhibition, significance)” value by setting is: (Dose [Inhibitor]: 0.5 OR 1.0 MMOL/KG/D IN DIET STARTING 1 WK AFTER CARCINOGEN TREATMENT AND CONTINUING THROUGH THE END OF THE STUDY (STUDY, Strain/Sex: SYRIAN/FEMALE, Target Tissue: Type of Lesion: PANCREAS: DUCTULAR CARCINOMA, Dose [Carcinogen]: 10 MG/KG BW ONCE) 6/23 (27%), 2/25 (8%), 70%, not significant; (Dose [Inhibitor]: 0.5 OR 1.0 MMOL/KG/D IN DIET STARTING 1 WK AFTER CARCINOGEN TREATMENT AND CONTINUING THROUGH THE END OF THE STUDY (STUDY, Strain/Sex: SYRIAN/FEMALE, Target Tissue: Type of Lesion: PANCREAS: DUCTULAR CARCINOMA, Dose [Carcinogen]: 40 MG/KG BW ONCE) 6/20 (30%), 7/26 (27%), 10%, not significant; (Dose [Inhibitor]: 0.5 OR 1.0 MMOL/KG/D IN DIET STARTING 1 WK AFTER CARCINOGEN TREATMENT AND CONTINUING THROUGH THE END OF THE STUDY (STUDY, Strain/Sex: SYRIAN/MALE, Target Tissue: Type of Lesion: LIVER: BENIGN TUMOR, Dose [Carcinogen]: 40 MG/KG BW ONCE) 5/24 (21%), 17/39 (44%), -110%, p<0.05; (Dose [Inhibitor]: 0.5 OR 1.0 MMOL/KG/D IN DIET STARTING 1 WK AFTER CARCINOGEN TREATMENT AND CONTINUING THROUGH THE END OF THE STUDY (STUDY, Strain/Sex: SYRIAN/MALE, Target Tissue: Type of Lesion: PANCREAS: DUCTULAR ADENOMA, Dose [Carcinogen]: 10 MG/KG BW ONCE) 3/22 (14%), 14/31 (45%), -221%, p<0.05; (Dose [Inhibitor]: 0.5 OR 1.0 MMOL/KG/D IN DIET STARTING 1 WK AFTER CARCINOGEN TREATMENT AND CONTINUING THROUGH THE END OF THE STUDY (STUDY, Strain/Sex: SYRIAN/MALE, Target Tissue: Type of Lesion: PANCREAS: DUCTULAR ADENOMA, Dose [Carcinogen]: 40 MG/KG BW ONCE) 8/24 (33%), 19/37 (51%), -55%, not significant; (Dose [Inhibitor]: 0.5 OR 1.0 MMOL/KG/D IN DIET STARTING 1 WK AFTER CARCINOGEN TREATMENT AND CONTINUING THROUGH THE END OF THE STUDY (STUDY, Strain/Sex: SYRIAN/MALE, Target Tissue: Type of Lesion: PANCREAS: DUCTULAR CARCINOMA, Dose [Carcinogen]: 10 MG/KG BW ONCE) 4/22 (18%), 3/31 (10%), 44%, not significant. Moreover, the “tumour outcome (control, treated, inhibition, significance)” value (Dose [Inhibitor]: 0.5 OR 1.0 MMOL/KG/D IN DIET STARTING 1 WK AFTER CARCINOGEN TREATMENT AND CONTINUING THROUGH THE END OF THE STUDY (STUDY, Strain/Sex: SYRIAN/MALE, Target Tissue: Type of Lesion: PANCREAS: DUCTULAR CARCINOMA, Dose [Carcinogen]: 40 MG/KG BW ONCE) is 5/24 (21%), 15/37 (40%), -90%, not significant.
